Reference: PMC9583322, “Vicinal Diaryl-Substituted Isoxazole and Pyrazole Derivatives with In Vitro Growth Inhibitory and In Vivo Antitumor Activity” (ACS Omega, 2022)

Assays:
Assay in all cases: NCI-60 single-dose screen
Assay type in all cases: cell-based
786-0 = conditions: Homo sapiens, 786-0, Renal Cancer, read-out: % Growth Inhibition (GI%)
Description: (§1) Moreover, in vitro single-dose anticancer screening of 11 and 85 at 10 μM was performed utilizing the stable panel of 60 cell lines comprising 9 different cancer types at the National Cancer Institute (NCI) under the Developmental Therapeutics Program (Table S1).[31]

A498 = conditions: Homo sapiens, A498, Renal Cancer, read-out: % Growth Inhibition (GI%)
Description: as §1

A549/ATCC = conditions: Homo sapiens, Non-Small Cell Lung Cancer, read-out: % Growth Inhibition (GI%)
Description: as §1

CCRF-CEM = conditions: Homo sapiens, Leukemia, read-out: % Growth Inhibition (GI%)
Description: as §1

COLO 205 = conditions: Homo sapiens, COLO 205, Colon Cancer, read-out: % Growth Inhibition (GI%)
Description: as §1

EKVX = conditions: Homo sapiens, Non-Small Cell Lung Cancer, read-out: % Growth Inhibition (GI%)
Description: as §1

HCT-15 = conditions: Homo sapiens, HCT-15, Colon Cancer, read-out: % Growth Inhibition (GI%)
Description: as §1

HL-60 (TB) = conditions: Homo sapiens, Leukemia, read-out: % Growth Inhibition (GI%)
Description: as §1

HOP-92 = conditions: Homo sapiens, HOP-92, Non-Small Cell Lung Cancer, read-out: % Growth Inhibition (GI%)
Description: as §1

HS 578T = conditions: Homo sapiens, Breast Cancer, read-out: % Growth Inhibition (GI%)
Description: as §1

HT29 = conditions: Homo sapiens, HT-29, HT29, Colon Cancer, read-out: % Growth Inhibition (GI%)
Description: as §1

K-562 = conditions: Homo sapiens, K562, K-562, Leukemia, read-out: % Growth Inhibition (GI%)
Description: as §1

M14 = conditions: Homo sapiens, M14, Melanoma, read-out: % Growth Inhibition (GI%)
Description: as §1

MALME-3M = conditions: Homo sapiens, Melanoma, read-out: % Growth Inhibition (GI%)
Description: as §1

MCF7 = conditions: Homo sapiens, MCF7, Breast Cancer, read-out: % Growth Inhibition (GI%)
Description: as §1

MDA-MB-231 = conditions: Homo sapiens, MDA-MB-231, Breast Cancer, read-out: % Growth Inhibition (GI%)
Description: as §1

MDA-MB-435 = conditions: Homo sapiens, MDA-MB-435, Melanoma, read-out: % Growth Inhibition (GI%)
Description: as §1

MOLT-4 = conditions: Homo sapiens, MOLT-4, Leukemia, read-out: % Growth Inhibition (GI%)
Description: as §1

NCI-H226 = conditions: Homo sapiens, NCI-H226, Non-Small Cell Lung Cancer, read-out: % Growth Inhibition (GI%)
Description: as §1

NCI-H522 = conditions: Homo sapiens, NCI-H522, Non-Small Cell Lung Cancer, read-out: % Growth Inhibition (GI%)
Description: as §1

NCI/ADR-RES = conditions: Homo sapiens, Ovarian Cancer, read-out: % Growth Inhibition (GI%)
Description: as §1

OVCAR-3 = conditions: Homo sapiens, OVCAR-3, Ovarian Cancer, read-out: % Growth Inhibition (GI%)
Description: as §1

OVCAR-5 = conditions: Homo sapiens, OVCAR-5, Ovarian Cancer, read-out: % Growth Inhibition (GI%)
Description: as §1

RPMI-8226 = conditions: Homo sapiens, RPMI-8226, Leukemia, read-out: % Growth Inhibition (GI%)
Description: as §1

RXF 393 = conditions: Homo sapiens, RXF 393, Renal Cancer, read-out: % Growth Inhibition (GI%)
Description: as §1

SF-268 = conditions: Homo sapiens, SF-268, CNS Cancer, read-out: % Growth Inhibition (GI%)
Description: as §1

SF-295 = conditions: Homo sapiens, SF-295, CNS Cancer, read-out: % Growth Inhibition (GI%)
Description: as §1

SF-539 = conditions: Homo sapiens, SF-539, CNS Cancer, read-out: % Growth Inhibition (GI%)
Description: as §1

SK-MEL-28 = conditions: Homo sapiens, SK-MEL-28, Melanoma, read-out: % Growth Inhibition (GI%)
Description: as §1

SK-MEL-2 = conditions: Homo sapiens, SK-MEL-2, Melanoma, read-out: % Growth Inhibition (GI%)
Description: as §1

SK-OV-3 = conditions: Homo sapiens, SK-OV-3, Ovarian Cancer, read-out: % Growth Inhibition (GI%)
Description: as §1

SNB-19 = conditions: Homo sapiens, SNB-19, CNS Cancer, read-out: % Growth Inhibition (GI%)
Description: as §1

SR = conditions: Homo sapiens, Leukemia, read-out: % Growth Inhibition (GI%)
Description: as §1

U251 = conditions: Homo sapiens, U-251, U251, CNS Cancer, read-out: % Growth Inhibition (GI%)
Description: as §1

UACC-62 = conditions: Homo sapiens, UACC-62, Melanoma, read-out: % Growth Inhibition (GI%)
Description: as §1

UO-31 = conditions: Homo sapiens, UO-31, Renal Cancer, read-out: % Growth Inhibition (GI%)
Description: as §1

Cc1ccccc1COc1ccc(-c2noc(C)c2-c2ccc(Cl)cc2)cc1 [compound 11, 4-(4-Chlorophenyl)-5-methyl-3-(4-((2-methylbenzyl)oxy)phenyl)isoxazole]
inhibition at 10 µM (786-0): 24.5%
inhibition at 10 µM (A498): 61.4%
inhibition at 10 µM (A549/ATCC): 50.7%
inhibition at 10 µM (CCRF-CEM): 61.8%
inhibition at 10 µM (COLO 205): 29%
inhibition at 10 µM (EKVX): 24.9%
inhibition at 10 µM (HCT-15): 62.5%
inhibition at 10 µM (HL-60 (TB)): 82.3%
inhibition at 10 µM (HOP-92): 27.4%
inhibition at 10 µM (HS 578T): 40.6%
inhibition at 10 µM (HT29): 83.1%
inhibition at 10 µM (K-562): 85.6%
inhibition at 10 µM (M14): 67.8%
inhibition at 10 µM (MALME-3M): 40.2%
inhibition at 10 µM (MCF7): 68.3%
inhibition at 10 µM (MDA-MB-231): 79.2%
inhibition at 10 µM (MDA-MB-435): 100%
inhibition at 10 µM (MOLT-4): 67.2%
inhibition at 10 µM (NCI-H226): 42.8%
inhibition at 10 µM (NCI-H522): 74.5%
inhibition at 10 µM (NCI/ADR-RES): 60.8%
inhibition at 10 µM (OVCAR-3): 79.3%
inhibition at 10 µM (OVCAR-5): 12.4%
inhibition at 10 µM (RPMI-8226): 19%
inhibition at 10 µM (RXF 393): 29.8%
inhibition at 10 µM (SF-268): 24.4%
inhibition at 10 µM (SF-295): 50.6%
inhibition at 10 µM (SF-539): 36.5%
inhibition at 10 µM (SK-MEL-28): 29.6%
inhibition at 10 µM (SK-MEL-2): 62.9%
inhibition at 10 µM (SK-OV-3): 40.5%
inhibition at 10 µM (SNB-19): 44.5%
inhibition at 10 µM (SR): 66%
inhibition at 10 µM (U251): 58.7%
inhibition at 10 µM (UACC-62): 51.5%
inhibition at 10 µM (UO-31): 25.6%

Cc1ccccc1COc1ccc(-c2ccnn2-c2ccc(Cl)cc2)cc1 [compound 85, 1-(4-Chlorophenyl)-5-(4-((2-methylbenzyl)oxy)phenyl)-1H-pyrazole]
inhibition at 10 µM (786-0): 17.2%
inhibition at 10 µM (A498): 42.5%
inhibition at 10 µM (A549/ATCC): 50.5%
inhibition at 10 µM (CCRF-CEM): 57.6%
inhibition at 10 µM (COLO 205): 28.8%
inhibition at 10 µM (EKVX): 22.9%
inhibition at 10 µM (HCT-15): 60.1%
inhibition at 10 µM (HL-60 (TB)): 86.7%
inhibition at 10 µM (HOP-92): 25.8%
inhibition at 10 µM (HS 578T): 39.1%
inhibition at 10 µM (HT29): 82.4%
inhibition at 10 µM (K-562): 86.3%
inhibition at 10 µM (M14): 61%
inhibition at 10 µM (MALME-3M): 32.8%
inhibition at 10 µM (MCF7): 68.1%
inhibition at 10 µM (MDA-MB-231): 75.8%
inhibition at 10 µM (MDA-MB-435): 99.2%
inhibition at 10 µM (MOLT-4): 73.7%
inhibition at 10 µM (NCI-H226): 29.7%
inhibition at 10 µM (NCI-H522): 70.9%
inhibition at 10 µM (NCI/ADR-RES): 62%
inhibition at 10 µM (OVCAR-3): 73.4%
inhibition at 10 µM (OVCAR-5): 8.29%
inhibition at 10 µM (RPMI-8226): 22.6%
inhibition at 10 µM (RXF 393): 39.7%
inhibition at 10 µM (SF-268): 19.5%
inhibition at 10 µM (SF-295): 46.9%
inhibition at 10 µM (SF-539): 28.2%
inhibition at 10 µM (SK-MEL-28): 30.6%
inhibition at 10 µM (SK-MEL-2): 60.8%
inhibition at 10 µM (SK-OV-3): 36.3%
inhibition at 10 µM (SNB-19): 38%
inhibition at 10 µM (SR): 66.2%
inhibition at 10 µM (U251): 54%
inhibition at 10 µM (UACC-62): 39.3%
inhibition at 10 µM (UO-31): 25.6%
